Target: PD-1/PD-L1 (Homo sapiens (Human), UniProt Q9NZQ7)
Assay: PD-1/PD-L1 biochemical protein-protein interaction assay (ALPHA)
Conditions: 0.3 nM His tagged PD-L1, 2.5 nM biotinylated Fc-PD-1, 60 minutes at 25° C., read-out: IC50 PD-L1-PD1

Chain of PD-1/PD-L1 (Q9NZQ7 19-238): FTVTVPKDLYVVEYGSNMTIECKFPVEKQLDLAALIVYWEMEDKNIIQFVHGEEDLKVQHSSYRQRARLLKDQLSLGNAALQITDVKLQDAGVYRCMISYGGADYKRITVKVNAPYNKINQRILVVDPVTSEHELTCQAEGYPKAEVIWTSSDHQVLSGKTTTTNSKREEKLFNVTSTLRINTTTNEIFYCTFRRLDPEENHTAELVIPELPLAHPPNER

| SMILES | IC50 [nM] |
| --- | --- |
| COc1nc(-c2cccc(-c3cccc(-c4cnc(CN)c(OC)n4)c3Cl)c2Cl)ccc1C1=NCCN1 [compound 583] | 0.064 |
| COc1nc(-c2cccc(-c3cccc(-c4cnc(C5=NCCN5)c(OC)n4)c3Cl)c2Cl)cnc1CN [compound 584] | 0.118 |
| COc1nc(-c2cccc(-c3cccc(-c4cnc(CN5CC[C@H](C(=O)O)C5)c(OC)n4)c3Cl)c2Cl)cnc1CN [compound 585] | 0.442 |
| COc1nc(-c2cccc(-c3cccc(-c4cnc(CN5CC[C@H](O)C5)c(OC)n4)c3Cl)c2Cl)cnc1CN [compound 586] | 0.29 |
| COc1nc(-c2cccc(-c3cccc(-c4cnc(CN5CC[C@@H](O)C5)c(OC)n4)c3Cl)c2Cl)cnc1CN [compound 587] | 0.515 |
| COc1nc(-c2cccc(-c3cccc(-c4cnc(CNCC5(O)COC5)c(OC)n4)c3Cl)c2Cl)cnc1CNCC1(O)COC1 [compound 588] | 0.17 |
| COc1nc(-c2cccc(-c3cccc(-c4cnc(CNCC5(O)COC5)c(OC)n4)c3Cl)c2Cl)cnc1CNC[C@@H]1CCC(=O)N1 [compound 589] | 0.291 |
| COc1nc(-c2cccc(-c3cccc(-c4cnc(CN[C@H](C5CC5)[C@@H]5CCC(=O)N5)c(OC)n4)c3Cl)c2Cl)cnc1CN[C@H](C1CC1)[C@@H]1CCC(=O)N1 [compound 590] | 0.131 |
| COc1nc(-c2cccc(-c3cccc(-c4cnc(CN5CC6(CNC(=O)C6)C5)c(OC)n4)c3Cl)c2Cl)cnc1CN [compound 591] | 0.138 |
| COc1nc(-c2cccc(-c3cccc(-c4cnc(CNC5CC(C)(O)C5)c(OC)n4)c3Cl)c2Cl)cnc1CN (stereo not drawn) [compound 592] | 0.151 |
| COc1nc(-c2cccc(-c3cccc(-c4cnc(CN5CC(O)C5)c(OC)n4)c3Cl)c2Cl)cnc1CN [compound 594] | 0.12 |
| COc1nc(-c2cccc(-c3cccc(-c4cnc(CN5CC6(CCC(=O)N6)C5)c(OC)n4)c3Cl)c2Cl)cnc1CN [compound 595] | 0.064 |
| COc1nc(-c2cccc(-c3cccc(-c4cnc(CN5CC(C)(O)C5)c(OC)n4)c3Cl)c2Cl)cnc1CN [compound 596] | 0.181 |
| COc1nc(-c2cccc(-c3cccc(-c4cnc(CN5CC6(C5)CN(C(C)=O)C6)c(OC)n4)c3Cl)c2Cl)cnc1CN [compound 597] | 0.129 |
| COc1nc(-c2cccc(-c3cccc(-c4cnc(CN[C@@H](C)[C@H]5CCC(=O)N5)c(OC)n4)c3Cl)c2Cl)cnc1CNC[C@@H]1CCC(=O)N1 [compound 598] | 0.178 |
| COc1nc(-c2cccc(-c3cccc(-c4cnc(CN[C@H](C)[C@@H]5CCC(=O)N5)c(OC)n4)c3Cl)c2Cl)cnc1CNC[C@@H]1CCC(=O)N1 [compound 599] | 0.174 |
| COc1nc(-c2cccc(-c3cccc(-c4cnc(CN[C@H]5C[C@@](O)(CO)C5)c(OC)n4)c3Cl)c2Cl)cnc1CNC[C@@H]1CCC(=O)N1 [compound 600] | 0.064 |
| COc1nc(-c2cccc(-c3cccc(-c4cnc(CN[C@H](C)[C@@H]5CCC(=O)N5)c(OC)n4)c3Cl)c2Cl)cnc1CN[C@H](C)[C@@H]1CCC(=O)N1 [compound 601] | 0.196 |
| COc1nc(-c2cccc(-c3cccc(-c4cnc5c(CN6CCC7(CCC(=O)N7)C6)cn(C)c5n4)c3Cl)c2Cl)cnc1CNC[C@H]1CCC(=O)N1 (stereo partly drawn) [compound 602] | 0.145 |
| COc1nc(-c2cccc(-c3cccc(-c4cnc5c(CNC[C@H]6C[C@H](O)C6)cn(C)c5n4)c3Cl)c2Cl)cnc1CNC[C@H]1CCC(=O)N1 [compound 603] | 0.073 |
| COc1nc(-c2cccc(-c3cccc(-c4cnc5c(CN6CC7(C6)CN(C(C)=O)C7)cn(C)c5n4)c3Cl)c2Cl)cnc1CNC[C@H]1CCC(=O)N1 [compound 604] | 0.064 |

| SMILES | IC50 [nM] |
| --- | --- |
| COc1nc(-c2cccc(-c3cccc(-c4cnc5c(CN6CC7(CNC(=O)C7)C6)cn(C)c5n4)c3Cl)c2Cl)cnc1CNC[C@H]1CCC(=O)N1 [compound 605] | 0.113 |
| COc1nc(-c2cccc(-c3cccc(-c4cnc5c(CNC[C@@H]6CCC(=O)N6)cn(C)c5n4)c3Cl)c2Cl)cnc1CNC[C@H]1CCC(=O)N1 [compound 606] | 0.077 |
| COc1nc(-c2cccc(-c3cccc(-c4cnc5c(CN6CC7(CNC(=O)C7)C6)cn(C)c5n4)c3Cl)c2Cl)cnc1CN1CC2(CNC(=O)C2)C1 [compound 607] | 0.064 |
| CCn1cc(CN2CC3(C2)CN(C(C)=O)C3)c2ncc(-c3cccc(-c4cccc(-c5cnc(CN6CC7(C6)CN(C(C)=O)C7)c(OC)n5)c4Cl)c3Cl)nc21 [compound 608] | 0.064 |
| CCn1cc(CN2CC3(CNC(=O)C3)C2)c2ncc(-c3cccc(-c4cccc(-c5cnc(CN6CC7(CNC(=O)C7)C6)c(OC)n5)c4Cl)c3Cl)nc21 [compound 609] | 0.079 |
| CCn1cc(CN2CC3(CCC(=O)N3)C2)c2ncc(-c3cccc(-c4cccc(-c5cnc(CN6CC7(CCC(=O)N7)C6)c(OC)n5)c4Cl)c3Cl)nc21 [compound 610] | 0.313 |
| CCn1cc(CN2CC(O)C2)c2ncc(-c3cccc(-c4cccc(-c5cnc(CN6CC(O)C6)c(OC)n5)c4Cl)c3Cl)nc21 [compound 611] | 0.21 |
| COc1nc(-c2cccc(-c3cccc(-c4cnc5c(CN6CC7(C6)CN(C(C)=O)C7)cn(C)c5n4)c3Cl)c2Cl)cnc1CN1CC2(C1)CN(C(C)=O)C2 [compound 612] | 0.064 |
| COc1nc(-c2cccc(-c3cccc(-c4cnc5c(CN6CC7(CCC(=O)N7)C6)cn(C)c5n4)c3Cl)c2Cl)cnc1CN1CC2(CCC(=O)N2)C1 [compound 613] | 0.182 |
| COc1nc(-c2cccc(-c3cccc(-c4cnc(CNC[C@@H]5CCC(=O)N5)c(OC)n4)c3F)c2Cl)ccc1CNC[C@@H]1CCC(=O)N1 [compound 614] | 0.079 |
| COc1nc(-c2cccc(-c3cccc(-c4cnc(CNCCO)c(OC)n4)c3F)c2Cl)ccc1CNCCO [compound 615] | 0.291 |
| COc1nc(-c2cccc(-c3cccc(-c4cnc(CN5CC[C@@H](CO)C5)c(OC)n4)c3F)c2Cl)ccc1CN1CC[C@@H](CO)C1 [compound 616] | 0.069 |
| COc1nc(-c2cccc(-c3cccc(-c4cnc(CN5CC6(C5)CN(C(C)=O)C6)c(OC)n4)c3F)c2Cl)ccc1CN1CC2(C1)CN(C(C)=O)C2 [compound 617] | 0.064 |
| COc1nc(-c2cccc(-c3cccc(-c4cnc(CN5CC6(CCC(=O)N6)C5)c(OC)n4)c3F)c2Cl)ccc1CN1CC2(CCC(=O)N2)C1 [compound 618] | 0.064 |
| COc1nc(-c2cccc(-c3cccc(-c4cnc(CN5CC(O)C5)c(OC)n4)c3F)c2Cl)ccc1CN1CC(O)C1 [compound 619] | 0.178 |
| COc1nc(-c2cccc(-c3cccc(-c4cnc(CNC[C@@H]5CCC(=O)N5)c(OC)n4)c3Cl)c2Cl)cnc1CNCCOc1ccccn1 [compound 620] | 0.101 |
| COc1nc(-c2cccc(-c3cccc(-c4cnc(CN5CC(C)(N)C5)c(OC)n4)c3Cl)c2Cl)cnc1CN1CC(C)(N)C1 [compound 621] | 1.05 |
| COc1nc(-c2cccc(-c3cccc(-c4cnc(CN5CC(C)(N)C5)c(OC)n4)c3Cl)c2Cl)cnc1CNC[C@@H]1CCC(=O)N1 [compound 622] | 0.26 |
| COc1nc(-c2cccc(-c3cccc(-c4cnc(CN5CC[C@H](CO)C5)c(OC)n4)c3Cl)c2Cl)cnc1CN1CC[C@H](CO)C1 [compound 624] | 0.152 |
| COc1nc(-c2cccc(-c3cccc(-c4cnc(CN5CC[C@H](CO)C5)c(OC)n4)c3Cl)c2Cl)cnc1CNC[C@@H]1CCC(=O)N1 [compound 625] | 0.074 |
| COc1nc(-c2cccc(-c3cccc(-c4cnc(CN5CC[C@@H](CO)C5)c(OC)n4)c3Cl)c2Cl)cnc1CN1CC[C@@H](CO)C1 [compound 626] | 0.064 |
